The text below walks through data of patent US7537919B2, “Cytochrome P450RAI-2 and related proteins” (Cytochroma Inc., priority 1999, dated 2009).

SMILES strings stand for the structures. “And” between values parts separate entries of the source, which are not always exact repeats. Equal entries are not always repeated.

For data set [1], the system named is P450RAI-2 transcripts. Nature of the data set: Induction of P450RAI-2 mRNA in cultured cell lines (Northern blot, RT-PCR). The following applies: for induction of P450RAI-2 expression, MCF-7 cells: 10^-6 M retinoid.
Data set [2] concerns the target T1, P450RAI-1 (Homo sapiens, UniProt O43174).
T1 sequence (O43174 1-497): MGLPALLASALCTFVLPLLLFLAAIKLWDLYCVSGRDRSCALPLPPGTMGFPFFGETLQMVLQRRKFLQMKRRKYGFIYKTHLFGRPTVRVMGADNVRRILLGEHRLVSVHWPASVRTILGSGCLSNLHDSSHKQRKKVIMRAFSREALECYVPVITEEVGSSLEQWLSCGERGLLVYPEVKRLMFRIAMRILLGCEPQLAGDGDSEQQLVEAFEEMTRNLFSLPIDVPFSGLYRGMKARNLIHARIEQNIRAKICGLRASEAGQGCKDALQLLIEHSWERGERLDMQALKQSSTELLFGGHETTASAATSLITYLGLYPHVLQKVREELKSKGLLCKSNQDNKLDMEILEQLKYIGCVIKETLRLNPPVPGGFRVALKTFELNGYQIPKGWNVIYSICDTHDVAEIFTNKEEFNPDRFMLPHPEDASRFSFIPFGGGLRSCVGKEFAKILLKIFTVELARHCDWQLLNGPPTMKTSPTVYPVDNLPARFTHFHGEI
Kind of data set: Competitive inhibition of all-trans-RA metabolism in COS-1 cells transfected with pcDNA3.1-P450RAI-1. More on the design: expressed in transfected cells; host or cells: COS-1 (African green monkey kidney), transient transfection. To be noted: for effectiveness as competitor of P450RAI-1 mediated all-trans-RA metabolism: compared with all-trans-RA; for IC50: 2 nM [3H]all-trans-RA, 3 hours, aqueous soluble radioactivity, read-out: Interpolated ID50, P450RAI-1. It is filed as cell-based. The procedure:
(§1) Panels on the right show cells expressing P450RAI-2 with panels on the left showing cells expressing P450RAI-1.
(§2) Exponentially growing cells were plated in triplicate into 6-well plates and transfected with lug of pcDNA3.1-P450RAI-1 or pcDNA3.1-P450RAI-2 using Fugene 6 transfection reagent with 3 ul per sample as described by the manufacturer (Roche Molecular Biochemicals, IN). Cells were maintained in media supplemented with 10% FBS during transfection.
COS-1 cells were transfected with either pcDNA3.1-P450RAI-1 or pcDNA3.1-P450RAI-2 in 6-well tissue culture plates as described above. 48 hours post-transfection cells were harvested, pooled, washed with DMEM medium and replated into duplicate 48-well plates with 5×10^5 cells per well.

The target of data set [3] is T2, P450RAI-2 (Homo sapiens, UniProt Q9NR63).
T2 sequence (Q9NR63 1-512): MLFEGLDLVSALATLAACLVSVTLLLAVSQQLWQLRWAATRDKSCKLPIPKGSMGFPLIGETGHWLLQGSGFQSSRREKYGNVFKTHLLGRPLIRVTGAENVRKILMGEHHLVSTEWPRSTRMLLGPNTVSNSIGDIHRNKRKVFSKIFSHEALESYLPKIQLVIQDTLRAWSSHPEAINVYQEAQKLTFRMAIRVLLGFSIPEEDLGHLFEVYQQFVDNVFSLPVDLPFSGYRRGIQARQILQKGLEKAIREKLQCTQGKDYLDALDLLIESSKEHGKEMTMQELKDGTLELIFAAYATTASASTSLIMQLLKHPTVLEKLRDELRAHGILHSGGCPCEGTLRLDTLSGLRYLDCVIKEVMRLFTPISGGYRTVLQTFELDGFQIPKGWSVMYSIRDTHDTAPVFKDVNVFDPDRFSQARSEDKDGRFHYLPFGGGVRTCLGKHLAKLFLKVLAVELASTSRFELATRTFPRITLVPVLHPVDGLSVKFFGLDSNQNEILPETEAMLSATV
Kind of data set: Competitive inhibition of all-trans-RA metabolism in COS-1 cells transfected with pcDNA3.1-P450RAI-2. It is filed as cell-based. More on the design: The full-length human P450RAI-2 cDNA was cloned into the eukaryotic expression vector pcDNA 3.1; expressed in transfected cells; host or cells: COS-1 (African green monkey kidney), transient transfection. The following applies: for effectiveness as competitor of P450RAI-2 mediated all-trans-RA metabolism: compared with all-trans-RA, COS-1 cells. The procedure: as §1, §2
COS-1 cells were transfected with either pcDNA3.1-P450RAI-1 or pcDNA3.1-P450RAI-2 in 6-well tissue culture plates as described above.

The nature of data set [4]: Conversion of [3H]all-trans-RA in controls (media alone, pcDNA3.1 transfected COS-1 cells).
The target of data set [5] is T2, P450RAI-2. Kind of data set: Metabolism of [3H]all-trans-RA to aqueous-soluble products in COS-1 cells transfected with pcDNA3.1-P450RAI-2. Also on record: dose or concentration left out as unconfirmed. To be noted: radiolabelled all-trans-retinoic acid.
Data set [6] concerns the target T1, P450RAI-1. Nature of the data set: Metabolism of [3H]all-trans-RA to aqueous-soluble products in COS-1 cells transfected with pcDNA3.1-P450RAI-1. The following applies: 100 mM (so in the source) radiolabelled all-trans-retinoic acid.
In data set [7] the test system is P450RAI-2 expression. Nature of the data set: P450RAI-2 expression in RAFT and psoriasis biopsy samples (Northern blot, RT-PCR). It is filed as cell-based, human. How it is done:
Total RNA aliquots (10 μg) were electrophoresed on a 1.0% formaldehyde-agarose gel and a northern blot performed. The gel was photographed under ultraviolet light and then blotted on Hybond ECL nitrocellulose membrane (Amersham Pharmacia Biotech, UK) and fixed to the membrane by baking at 80° C. for 2 hours under vacuum. […] Three individual cDNA fragments were labeled with α-[^32P]dATP using the Prime-A-Gene Labeling System (Promega, WI). The probes were as follows; P450RAI-1762-1217 bp of SEQ ID NO:13, full length P450RAI-2 SEQ ID NO:4 and a human glyceraldehyde-3-phosphate dehydrogenase (GAPDH) PCR fragment. The blot was hybidized with P450RAI-2, washed two times for 5 minutes in 2×SSPE, 0.1% SDS at room temperature, then washed once at 65° C. for 10 minutes in 1×SSPE, 0.1% SDS and a final wash for 15 minutes at 65° C. in 0.1×SSPE, 0.1% SDS. The blot was exposed at −70° C. for 48 hours to Kodak X-Omat AR film (Eastman Kodak Company, NY). […] The blot was stripped by washing two times for 30 minutes in boiling 0.5% SDS and exposed to film overnight to ensure proper removal of probe. The above protocol was repeated for P450RAI-1 and GAPDH. The P450RAI-1 and GAPDH blots were exposed for 96 and 4 hours respectively.
The final primer concentrations were 45 μM for the P450RAI-1 and P450RAI-2 primers and 11.25 μM for the GAPDH-specific primers. Two separate sets of reactions were performed using the primer sets, P450RAI-1/GAPDH and P450RAI-2/GAPDH. […] The P450RAI-1, P450RAI-2 and GAPDH upstream and downstream amplification primers sets were 5′[…]-3′ (SEQ ID NO: 35) and 5′-[…]-3′ (SEQ ID NO: 36), 5′-[…]-3′ (SEQ ID NO: 37) and 5′-[…]-3′ (SEQ ID NO: 38), 5′-[…]-3′ (SEQ ID NO: 39) and 5′-[…]-3′ (SEQ ID NO: 40) respectively. […] Both the Psoriasis samples show PCR products corresponding to P450RAI-2.

As to `CC1=C(/C=C/C(C)=C\C=C\C(C)=C\C(=O)O)C(C)(C)CCC1` [9-cis-RA, 9-cis retinoic acid], in data set [1] (Northern blot, 12 hours), the “induction of P450RAI-2 expression, MCF-7 cells” value (“induction … MCF-7 cells” below) is on record as “not clear”. The “effectiveness as competitor of P450RAI-1 mediated all-trans-RA metabolism” value in data set [2] is recorded as “less effective”. For the same compound, the “effectiveness as competitor of P450RAI-2 mediated all-trans-RA metabolism” value in data set [3] is “less effective”.
Turning to `CC1=C(/C=C/C(C)=C/C=C/C(C)=C\C(=O)O)C(C)(C)CCC1` [13-cis-RA, 13-cis retinoic acid], the “induction … MCF-7 cells” value in data set [1] (Northern blot, 12 hours) is recorded as “induced”. Besides, the “effectiveness as competitor of P450RAI-1 mediated all-trans-RA metabolism” value in data set [2] is listed as “less effective”. For the same compound, the “effectiveness as competitor of P450RAI-2 mediated all-trans-RA metabolism” value in data set [3] is given as “less effective”.
Turning to `CC1=C(/C=C/C(C)=C/C=C/C(C)=C/C(=O)O)C(C)(C)CCC1` [All-trans-RA, all-trans retinoic acid], the “time to induction of P450RAI-2 transcripts” value in data set [1] (HPK1a-ras cells, RT-PCR, post-addition of inducer) is at most 2 h. Besides, in data set [1] (Northern blot, 1 μM, 12 hours), the “induction of P450RAI-2 transcripts, HPK1a-ras, HeLa and MCF-7” value is reported as “show induction”. For the same compound, the “induction … MCF-7 cells” value in data set [1] (Northern blot, 12 hours) was “induced”. Besides, the “induction of P450RAI-2 expression, HPK1A-RAS keratinocytes” value in data set [1] (Northern blot, 10^-6 M, 12 hours) is “inducible”. Further, the “inducible expression of P450RAI-2, MCF-7, HeLa, HPK1a-ras and WT-E” value in data set [1] (RT-PCR, 1 μM) is reported as “evidence for inducible expression”. The “P450RAI-2 transcripts in NB4, V79 and SK-Luci-6 cells” value in data set [1] (RT-PCR, vehicle or all-trans-RA treated) was “little or no perceptible transcripts”. The “conversion of substrate to aqueous radioactivity, pcDNA3.1 transfected cells” value in data set [4] (COS-1 cells with empty vector pcDNA3.1, 3 hours) is 2.7±0.2%. Also, the “conversion of substrate to aqueous radioactivity, media alone” value in data set [4] (media alone control, 3 hours) was determined as 1.6±0.1%. Besides, in data set [2], the IC50 is ~2500 nM and 2500 nM. For the same compound, the “all-trans-RA substrate converted to aqueous-soluble products, P450RAI-2 transfected cells” value in data set [5] was determined as 34±0.2%. The “all-trans-RA substrate converted to aqueous-soluble products, P450RAI-1 transfected cells” value in data set [6] worked out at 26±1.5%.
`CC1=C(/C=C/C(C)=C/C=C/C(C)=C/CO)C(C)(C)CCC1` [Retinol, retinol]: the IC50 in data set [2] was over 100000 nM; in data set [3] (read-out: Interpolated ID50, P450RAI-2), over 100000 nM. Also, the “effectiveness as competitor of P450RAI-1 mediated all-trans-RA metabolism” value is reported as “less effective” in data set [2] and “very poor competitors” in data set [2] (listed as retinol). The “effectiveness as competitor of P450RAI-2 mediated all-trans-RA metabolism” value in data set [3] is reported as “less effective”; in data set [3] (listed as retinol), “very poor competitors”.
Consider `CCOC(=O)c1ccc(C#Cc2ccc3c(c2)C(C)(C)CCS3)nc1` [Tazarotene], for which the “P450RAI-2 expression, Day14 Psoriasis Biopsy sample” value in data set [7] (Northern blot) was “expressed”. In addition, the figures for the “P450RAI-2 expression, RAFT sample” value in data set [7] (Northern blot) and in data set [7] (RT-PCR) were “induced” and “shows expression”, respectively.
As to `CC1=C(/C=C/C(C)=C/C=C/C(C)=C/C=O)C(C)(C)CCC1` [retinal], the “effectiveness as competitor of P450RAI-1 mediated all-trans-RA metabolism” value in data set [2] is given as “less effective”; in data set [2] (listed as retinaldehyde) it was “very poor competitors”. For the same compound, the “effectiveness as competitor of P450RAI-2 mediated all-trans-RA metabolism” value in data set [3] was “less effective”; in data set [3] (listed as retinaldehyde), “very poor competitors”.
